“And” between values parts separate entries of the source, which are not always exact repeats. Equal entries are not always repeated. The source made the active and inactive calls.
Tests used:
[1] = target: T1, Oxysterols receptor LXR-beta (Homo sapiens, UniProt P55055); assay: LXR agonists, Gal4 luciferase reporter, dose response, counter-screen for ssDAF-12 agonist project, cell-based, luminescence, HEK293, S. stercoralis campaign (AID 720737); format: functional; conditions: read-out: IC50 (the source's name)
T1 sequence (P55055 whole entry): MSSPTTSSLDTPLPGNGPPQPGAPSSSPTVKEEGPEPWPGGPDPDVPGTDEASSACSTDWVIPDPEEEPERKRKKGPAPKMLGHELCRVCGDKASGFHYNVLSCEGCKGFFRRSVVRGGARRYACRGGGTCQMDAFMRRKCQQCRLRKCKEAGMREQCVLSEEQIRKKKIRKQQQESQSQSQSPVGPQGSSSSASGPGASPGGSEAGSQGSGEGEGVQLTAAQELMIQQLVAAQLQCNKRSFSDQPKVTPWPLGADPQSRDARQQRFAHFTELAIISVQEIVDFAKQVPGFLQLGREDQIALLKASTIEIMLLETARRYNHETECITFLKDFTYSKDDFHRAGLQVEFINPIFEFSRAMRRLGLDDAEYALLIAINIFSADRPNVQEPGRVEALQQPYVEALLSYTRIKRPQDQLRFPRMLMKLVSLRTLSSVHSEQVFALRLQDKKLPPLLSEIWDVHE

[2] = Luminescence-based cell-based high throughput dose response assay to identify activators of the DAF-12 from the parasite S. stercoralis (ssDAF-12).; format: functional
[3] = target: T2, Sentrin-specific protease 8 (Homo sapiens, UniProt Q96LD8); format: functional
T2 sequence (Q96LD8 whole entry): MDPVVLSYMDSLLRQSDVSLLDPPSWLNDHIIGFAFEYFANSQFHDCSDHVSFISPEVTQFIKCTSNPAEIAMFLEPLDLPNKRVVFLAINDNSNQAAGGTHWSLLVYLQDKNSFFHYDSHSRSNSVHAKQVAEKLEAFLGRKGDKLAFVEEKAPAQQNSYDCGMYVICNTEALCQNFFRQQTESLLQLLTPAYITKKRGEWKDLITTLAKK

[4] = rise of 2N DNA cells, HeLa – IC50, dose response (AID 1117349); format: functional, cell-based
[5] = rise of 4N DNA cells, HeLa – IC50, dose response (AID 1117351); format: functional, cell-based
[6] = target: T2, Sentrin-specific protease 8; format: functional; remark: listed apart in the source
[7] = tested on: SN12K1; assay: cells; format: functional; conditions: Homo sapiens
[8] = tested on: P388; assay: cells; format: functional; conditions: Mus musculus
[9] = tested on: P388/ADR; assay: cells; format: functional; conditions: Mus musculus
[10] = target: T3, DNA repair protein RAD52 homolog (Homo sapiens, UniProt P43351); format: functional, biochemical
T3 sequence (P43351 whole entry): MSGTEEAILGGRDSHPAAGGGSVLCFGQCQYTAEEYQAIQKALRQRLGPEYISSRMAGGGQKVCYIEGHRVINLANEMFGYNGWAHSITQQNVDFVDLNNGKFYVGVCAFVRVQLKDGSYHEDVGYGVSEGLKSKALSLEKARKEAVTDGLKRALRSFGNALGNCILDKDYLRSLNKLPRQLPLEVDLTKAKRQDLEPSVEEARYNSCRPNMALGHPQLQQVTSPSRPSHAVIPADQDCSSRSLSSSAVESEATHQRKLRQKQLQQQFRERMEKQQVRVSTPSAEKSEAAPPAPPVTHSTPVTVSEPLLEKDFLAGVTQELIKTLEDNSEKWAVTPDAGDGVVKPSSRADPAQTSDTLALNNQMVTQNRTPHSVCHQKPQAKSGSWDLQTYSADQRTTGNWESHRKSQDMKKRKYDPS

[11] = tested on: INS1; assay: INS-1E survival protection against cytokine death – cell-based, luminescence, retest, dose response (AID 449756); format: functional; conditions: Rattus norvegicus;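 further: cell death triggered by IL-1 beta plus TNF-alpha plus IFN-gamma mixture; protective hits raise ATP signal compared with cytokine alone wells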
[12] = target: T4, Streptokinase A (Streptococcus pyogenes serotype M1, UniProt P10520); assay: viability-normalized secreted streptokinase activity reduction – plasminogen activation absorbance, OD405, dose response (AID 1914); format: functional, Streptococcus pyogenes M1 GAS;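 further: secreted streptokinase activity via plasminogen activation per viability signal from cell pellet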
T4 sequence (P10520 whole entry): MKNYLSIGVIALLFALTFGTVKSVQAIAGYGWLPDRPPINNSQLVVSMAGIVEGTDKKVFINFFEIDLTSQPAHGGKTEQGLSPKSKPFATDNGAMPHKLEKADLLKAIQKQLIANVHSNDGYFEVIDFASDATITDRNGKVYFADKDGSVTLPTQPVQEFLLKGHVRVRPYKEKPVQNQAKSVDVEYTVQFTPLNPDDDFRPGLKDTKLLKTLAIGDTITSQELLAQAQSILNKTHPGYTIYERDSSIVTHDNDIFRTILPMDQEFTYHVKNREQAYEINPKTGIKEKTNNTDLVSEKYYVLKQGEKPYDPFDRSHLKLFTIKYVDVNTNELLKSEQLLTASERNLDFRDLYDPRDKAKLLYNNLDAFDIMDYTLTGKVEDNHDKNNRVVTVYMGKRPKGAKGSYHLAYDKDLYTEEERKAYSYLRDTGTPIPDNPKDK

[13] = tested on: Streptococcus; assay: GAS UMAA2166 growth inhibition – luminescence, BacTiterGlo, counter-screen for streptokinase expression inhibitor project, dose response (AID 1915); format: functional, organism-based;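 further: potency for reduction of bacterial viability or growth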
[14] = tested on: Streptococcus sp. 'group A'; assay: Streptococcus pyogenes SK(-)GAS viability under kanamycin – luminescence, BacTiterGlo, confirmation, counter-screen for streptokinase expression inhibitor project, dose response (AID 1900); format: functional, organism-based
[15] = TB: CFU replicating Measured in Microorganism System Using Imaging - 7108-05_Inhibitor_Dose_DryPowder_Activity_Set2.; format: functional
[16] = THP-1 cell cytotoxicity, dose response, cytotoxicity control for non-replicating M. tuberculosis project (AID 489025); format: functional
[17] = cells; format: functional
[18] = toxicity to HepG2 liver cells – cell-based, plate reader, dry powder, set 6, cytotoxicity control, dose response (AID 743311); format: functional
[19] = cells; conditions: HEK293
[20] = toxicity to A549 lung cells – cell-based, plate reader, dry powder, set 6, cytotoxicity control, dose response (AID 743312); format: functional

Cc1ccc([N+](=O)[O-])cc1NC(=O)C1CCCC1
EC50 [1]: > 67.5 µM (inactive) | IC50 [2]: > 67.5 µM (inactive)

COc1ccc2cc3[n+](cc2c1OC)CCc1cc2c(cc1-3)OCO2 [BERBERINE CHLORIDE]
IC50 [3]: 7.66 µM (active) | IC50 [4]: > 10 µM (inactive) | IC50 [5]: > 10 µM (inactive) | IC50 [6]: > 100 µM (inactive) | GI50 [7]: 3.93 µM (inactive) | GI50 [8]: 1.87 µM (inactive) | GI50 [9]: 102 µM (inactive) | AC50 [10]: 2.38 µM (active) and 5.69 µM (active) | AC50 [11]: 3.25 µM (active)

Cn1c(NC(=O)c2ccccc2)nc2ccccc21
EC50 [12]: > 150 µM (not active) | EC50 [13]: > 150 µM (not active) | EC50 [14]: 14.8 µM (active) | AbsAC90 [15]: 299.99 µM | CC50 [16]: > 40 µM (active) | IC50 [17]: 2.41 µM (active)

c1ccc(-c2ccc(OCCn3cnc4ccccc43)cc2)cc1
AC50 [18]: 5.92 µM (active) | AC50 [19]: > 52 µM (inactive) | AC50 [20]: 0.66 µM (active)
